The supplement of paper PMC10883282

Assays:
Assay in all cases: relative viability vs DMSO control (72 h) (fraction); higher = more viable cells
SW872 = test system: SW872
How it was run: (§1)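 Sarcoma cell lines were seeded in 384-well plates at densities set to reach 80–90% confluence. After 24 h, 2.5 µl of serially diluted compound was added (source plates 10 mM to 0.0002 mM), and plates were held 72 h at 37 °C, 5% CO2, with 0.1% DMSO vehicle and a 5 µM positive control. Relative viability came from ATPLite readings as percent growth, averaged over up to triplicate wells. Data were rescaled so full viability equals 1 and none equals 0.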

SW684 = test system: SW684
How it was run: as §1

SW982 = test system: SW982
How it was run: as §1

A204 = test system: A204
How it was run: as §1

KHOS-NP = test system: KHOS-NP
How it was run: as §1

RD-ES = test system: RD-ES
How it was run: as §1

SK-LMS-1 = test system: SK-LMS-1
How it was run: as §1

G401 = test system: G401
How it was run: as §1

VA-ES-BJ = test system: VA-ES-BJ
How it was run: as §1

SK-ES-1 = test system: SK-ES-1
How it was run: as §1

HS729 = test system: HS729
How it was run: as §1

HT1080 = test system: HT1080
How it was run: as §1

COc1cc(N2CCC(N3CCN(C)CC3)CC2)ccc1Nc1ncc(Cl)c(Nc2ccccc2P(C)(C)=O)n1 [Brigatinib]
Settings | relative viability
A204, 0.00017 µM | 1.06
A204, 0.00051 µM | 1.08
A204, 0.00152 µM | 1.03
A204, 0.00457 µM | 1.06
A204, 0.01372 µM | 1.04
A204, 0.04115 µM | 1.03
A204, 0.1235 µM | 1.06
A204, 0.3704 µM | 0.991
A204, 1.111 µM | 0.692
A204, 3.333 µM | 0.262
A204, 10 µM | 0.0135
G401, 0.00017 µM | 0.983
G401, 0.00051 µM | 0.972
G401, 0.00152 µM | 0.9624
G401, 0.00457 µM | 0.9721
G401, 0.01372 µM | 0.941
G401, 0.04115 µM | 0.909
G401, 0.1235 µM | 0.923
G401, 0.3704 µM | 0.764
G401, 1.111 µM | 0.626
G401, 3.333 µM | 0.261
G401, 10 µM | 0.0657
HS729, 0.00017 µM | 0.91
HS729, 0.00051 µM | 0.925
HS729, 0.00152 µM | 0.933
HS729, 0.00457 µM | 0.909
HS729, 0.01372 µM | 0.858
HS729, 0.04115 µM | 0.771
HS729, 0.1235 µM | 0.685
HS729, 0.3704 µM | 0.595
HS729, 1.111 µM | 0.417
HS729, 3.333 µM | 0.199
HS729, 10 µM | 0.0341
HT1080, 0.00017 µM | 1.01
HT1080, 0.00051 µM | 1.03
HT1080, 0.00152 µM | 1.02
HT1080, 0.00457 µM | 1.01
HT1080, 0.01372 µM | 1
HT1080, 0.04115 µM | 0.984
HT1080, 0.1235 µM | 1.01
HT1080, 0.3704 µM | 1.03
HT1080, 1.111 µM | 0.93
HT1080, 3.333 µM | 0.573
HT1080, 10 µM | 0.151
KHOS-NP, 0.00017 µM | 1.04
KHOS-NP, 0.00051 µM | 1.06
KHOS-NP, 0.00152 µM | 1.05
KHOS-NP, 0.00457 µM | 1.02
KHOS-NP, 0.01372 µM | 1.03
KHOS-NP, 0.04115 µM | 1.03
KHOS-NP, 0.1235 µM | 0.994
KHOS-NP, 0.3704 µM | 0.985
KHOS-NP, 1.111 µM | 0.852
KHOS-NP, 3.333 µM | 0.534
KHOS-NP, 10 µM | 0.21
RD-ES, 0.00017 µM | 0.965
RD-ES, 0.00051 µM | 0.968
RD-ES, 0.00152 µM | 0.955
RD-ES, 0.00457 µM | 0.918
RD-ES, 0.01372 µM | 0.873
RD-ES, 0.04115 µM | 0.839
RD-ES, 0.1235 µM | 0.701
RD-ES, 0.3704 µM | 0.457
RD-ES, 1.111 µM | 0.317
RD-ES, 3.333 µM | 0.165
RD-ES, 10 µM | 0.0867
SK-ES-1, 0.00017 µM | 0.96
SK-ES-1, 0.00051 µM | 0.986
SK-ES-1, 0.00152 µM | 0.971
SK-ES-1, 0.00457 µM | 0.973
SK-ES-1, 0.01372 µM | 1
SK-ES-1, 0.04115 µM | 0.951
SK-ES-1, 0.1235 µM | 0.825
SK-ES-1, 0.3704 µM | 0.496
SK-ES-1, 1.111 µM | 0.251
SK-ES-1, 3.333 µM | 0.0717
SK-ES-1, 10 µM | 0.0369
SK-LMS-1, 0.00017 µM | 1.04
SK-LMS-1, 0.00051 µM | 1
SK-LMS-1, 0.00152 µM | 1.02
SK-LMS-1, 0.00457 µM | 0.986
SK-LMS-1, 0.01372 µM | 0.998
SK-LMS-1, 0.04115 µM | 1.02
SK-LMS-1, 0.1235 µM | 1.02
SK-LMS-1, 0.3704 µM | 0.924
SK-LMS-1, 1.111 µM | 0.757
SK-LMS-1, 3.333 µM | 0.556
SK-LMS-1, 10 µM | 0.331
SW684, 0.00017 µM | 1.04
SW684, 0.00051 µM | 1.05
SW684, 0.00152 µM | 1.05
SW684, 0.00457 µM | 0.992
SW684, 0.01372 µM | 1.06
SW684, 0.04115 µM | 1.06
SW684, 0.1235 µM | 1.04
SW684, 0.3704 µM | 1.02
SW684, 1.111 µM | 0.921
SW684, 3.333 µM | 0.573
SW684, 10 µM | 0.2498
SW872, 0.00017 µM | 0.989
SW872, 0.00051 µM | 0.969
SW872, 0.00152 µM | 0.967
SW872, 0.00457 µM | 0.94
SW872, 0.01372 µM | 0.926
SW872, 0.04115 µM | 0.885
SW872, 0.1235 µM | 0.818
SW872, 0.3704 µM | 0.626
SW872, 1.111 µM | 0.469
SW872, 3.333 µM | 0.321
SW872, 10 µM | 0.288
SW982, 0.00017 µM | 1.03
SW982, 0.00051 µM | 1.03
SW982, 0.00152 µM | 1.03
SW982, 0.00457 µM | 1.01
SW982, 0.01372 µM | 0.954
SW982, 0.04115 µM | 0.869
SW982, 0.1235 µM | 0.695
SW982, 0.3704 µM | 0.383
SW982, 1.111 µM | 0.122
SW982, 3.333 µM | 0.00817
SW982, 10 µM | 0.00797
VA-ES-BJ, 0.00017 µM | 0.946
VA-ES-BJ, 0.00051 µM | 0.945
VA-ES-BJ, 0.00152 µM | 0.943
VA-ES-BJ, 0.00457 µM | 0.941
VA-ES-BJ, 0.01372 µM | 0.983
VA-ES-BJ, 0.04115 µM | 0.91
VA-ES-BJ, 0.1235 µM | 0.865
VA-ES-BJ, 0.3704 µM | 0.662
VA-ES-BJ, 1.111 µM | 0.272
VA-ES-BJ, 3.333 µM | 0.144
VA-ES-BJ, 10 µM | 0.125
